Patent US10392363B2, “Methods for treating protozoan infections” (Neoculi Pty Ltd., priority 2014, dated 2019)
Marks after values point to notes of the source that are not given here.

Experiments:
[1] = Solubility estimates using nephelometry; format: physicochemical; details: pH 6.5 phosphate buffer
Experimental: Compound in DMSO was spiked into either pH 6.5 phosphate buffer or 0.01 M HCl (approx. pH 2.0) with the final DMSO concentration being 1%. Samples were then analysed via Nephelometry to determine a solubility range. (See C. D. Bevan and R. S. Lloyd, Anal. Chem. 2000, 72, 1781-1787).

[2] = Exposure in male Swiss outbred mice following IV administration; format: in vivo; details: IV 5 mg/kg
Experimental: The systemic exposures of NCL026, NCL195, NCL259 and NCL812 were studied in nonfasted male Swiss outbred mice weighing 26.2-32.1 g. Mice had access to food and water ad libitum throughout the pre- and post-dose sampling period. Each compound was administered IV via a bolus injection into the tail vein (vehicle 20% (v/v) DMSO in PEG400, 1 mL/kg dose volume, n=8 mice per compound). […] A maximum of two samples were obtained from each mouse, with samples being taken either via submandibular bleed (approximately 120 μL; conscious sampling) or terminal cardiac puncture (0.6 mL; while mice were anaesthetised using inhaled Isoflurane). No urine samples were collected as mice were housed in bedded cages during the study. Blood was collected directly into polypropylene Eppendorf tubes containing heparin as anticoagulant, and stabilisation cocktail (containing Complete® (a protease inhibitor cocktail with EDTA) and potassium fluoride) to minimise the potential for ex vivo degradation of the test compounds in blood/plasma samples. Once collected, blood samples were centrifuged immediately, supernatant plasma was removed, and stored at −80° C. until analysis by LC-MS using methods standard in the art. Each compound was administered in a vehicle composed of 20% (v/v) DMSO in PEG400. Formulations were prepared by dissolving the compounds in DMSO prior to addition of PEG400. Formulations were not filtered prior to dosing and were administered to mice within 2.5 h of preparation. […] The dose administered to each mouse was calculated on the basis of the measured concentration in the IV formulation, the dose volume and individual mouse body weight. Plasma concentration versus time data were analysed using non-compartmental methods (WinNonlin Version 6.3.0.395). Standard calculations for each pharmacokinetic parameter were calculated using standard methods in the art.

[3] = values marked a, b are approximations

Cl.[H]/N=C(\N)NN=C(CC1CCCCC1)c1ccc(Cl)cc1 [NCL259]
kinetic solubility under neutral pH conditions [1]: more moderate | Apparent t1/2 ([2]; plasma, value marked b is an approximation): 2.9 h | AUC0-inf [2, 3]: 5.5^a h * μM | Plasma CL [2, 3]: 56.0^a mL/min/kg | Plasma Vss [2, 3]: 12.8^a L/kg
